This note sets out measurements from patent US11357862B2, “Peptide-conjugated nanoparticles for targeting, imaging, and treatment of prostate cancer” (Academia Sinica, priority 2016, dated 2022).

The subject of data set [1] is PC3 prostate cancer xenografts. Description: Immunohistochemical localization of phages after i.v. injection. It counts as in vivo, SCID mice. The following applies: co-injected with PC204. The method, then:
(§1) SCID mice were injected s.c. with 5×10^6 prostate cancer cells. Once the prostate cancer xenografts reached a suitable size (about 200˜300 mm^3), the mice were injected i.v. with 2×10^9 pfu phages in the presence or absence of 100 μg synthetic peptides. After ten minutes, the mice were sacrificed and perfused with 50 ml PBS to remove unbound phages. Selected organs and xenograft tumors were removed, and the phage titer recovered by E. coli strain ER2738 was measured using IPTG/X-Gal spray. Partial organs and tumors were embedded using optimal cutting temperature compound (O.C.T.) to prepare sections for immunohistochemical staining.
The tissue samples from in vivo phage homing experiments were embedded in frozen blocks. Phage distribution in each tissue was assessed by first removing O.C.T. with cold PBS, and then fixing the frozen sections with 4% paraformaldehyde for 10 min. The sections were incubated with 1% BSA for 30 min to block non-specific binding. After washing, the sections were incubated with mouse anti-M13 antibodies at a dilution of 1:250 for 1 hour, followed by treatment with polymer-based SUPER SENSITIVE™ IC detection system. In brief, the sections were incubated with SUPER […]™ reagent for 20 min and poly-HRP reagent for 30 min. DAB was used as a chromogen to visualize peroxidase activity, and the reaction was stopped by the addition of PBS. […]

Data set [2] relates to PC3 prostate cancer xenografts. Description: In vivo phage homing and peptide competitive inhibition. Set-up: species or system SCID mice. The settings on record: co-injection with PC204. How it is done:
as §1

The test system of data set [3] is DU145 prostate cancer xenografts. The data set is described as above. Further details: species or system SCID mice. The following applies: co-injection with PC204. How it is done: as §1
Data set [4] deals with PC3-Luc orthotopic tumors. In words: Orthotopic implantation and therapeutic study. The following applies: doxorubicin 1 mg/kg, vinorelbine 2 mg/kg i.v. twice a week, docetaxel 5 mg/kg i.p. once a week, 4 weeks. Type of data set: in vivo, SCID mice. The method, then: PC3 cells were transfected with Lenti-Luc virus (lentivirus containing the luciferase gene), and a stable PC3-Luc cell line was selected by puromycin screening. PC3-Luc cells (5×10^5 cells in 20 μl PBS per mouse) were orthotopically transplanted into the dorsal lobe of the prostate of SCID mice after anaesthesia with Avertin at a dose of 250 mg/kg. Seven days later, all mice bearing tumors were randomly divided into five groups (n=8 per group) based on photon flux indices detected using Xenogen IVIS® 200 Luminal Image. Tumor-bearing mice were treated with different formulations of anti-cancer drugs or PBS. Tumor development was recorded every 7 days. The body weights and survival rates were measured.
Mice were injected with vehicle (PBS), docetaxel (5 mg/kg), liposomal drugs, or targeting liposomal drugs (doxorubicin 1 mg/kg; vinorelbine 2 mg/kg).

Data set [5] in a line: Pharmacokinetics of doxorubicin formulations. The following applies: 2 mg doxorubicin/kg, tail vein. Type of data set: in vivo, NOD/SCID mice.
Procedure: Blood samples were drawn at selected time points, and quantities of doxorubicin were analyzed.

Regarding “SP204: synthetic targeting peptide KQFSALPFNFYT, SEQ ID NO: 8, the ligand displayed on phage PC204 (Phage clone No. 204 displayed peptide sequence)”, the “phage immunoreactivity in tumor tissue on co-injection of PC204 with peptide” value in data set [1] is given as “no immunoreactivity was observed”. Further, the “inhibition of PC204 binding to tumor tissue by co-injected peptide” value in data set [2] is listed as 5.2 fold; in data set [3], 2.87 fold.
In turn, `CC(=O)O[C@@]12CO[C@@H]1C[C@H](O)[C@@]1(C)C(=O)[C@H](O)C3=C(C)[C@@H](OC(=O)[C@H](O)[C@@H](NC(=O)OC(C)(C)C)c4ccccc4)C[C@@](O)([C@@H](OC(=O)c4ccccc4)[C@H]21)C3(C)C` [docetaxel] had a median survival times in data set [4] of 58 days.
`COc1cccc2c1C(=O)c1c(O)c3c(c(O)c1C2=O)C[C@@](O)(C(=O)CO)C[C@@H]3O[C@H]1C[C@H](N)[C@H](O)[C@H](C)O1` [FD, doxorubicin]: the “plasma pharmacokinetic profile of doxorubicin” value in data set [5] is on record as “poor pharmacokinetic profile”.
